Where two headings read alike, the source gives them in different places.
What was measured:
PRMT5-MEP50 enzyme [1] = target: T1, PRMT5-MEP50 enzyme (Homo sapiens, UniProt O14744); assay: In vitro assay 1b: high throughput mass spectrometer assay of SAH formation, 1.25 nM enzyme, 120 min; type: biochemical; details: averaged values; PRMT5-MEP50, 1.25 nM enzyme, 120 min; read-out: pIC50 Assay 1b (converted)
T1 construct: One virus expresses full length human PRMT5 with Flag-tag at N-terminus; Flag (N); purchased Charles River (Argenta); host or cells: insect cells (Sf9), baculovirus co-infection
In short: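 Flag-PRMT5/His-MEP50 complex from Sf9 cells, with 1 μM SAM and 0.3 μM full-length histone H2A in pH 8.5 Tris buffer, at 30 °C; 10 nM enzyme for 60 min (1a) or 1.25 nM for 120 min (1b). Formic acid-quenched SAH read by RapidFire MS/MS; 11-point IC50 with Hill fit.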

PRMT5-MEP50 enzyme [2] = target: T1, PRMT5-MEP50 enzyme; assay: In vitro assay 1a: high throughput mass spectrometer assay of SAH formation, 10 nM enzyme, 60 min; type: biochemical; details: averaged values, PRMT5-MEP50, 10 nM enzyme, read-out: pIC50 Assay 1a (converted)
Source text: Experimental Procedures In Vitro Assay (Assay 1a and 1b)
PRMT5-MEP50 enzyme was purchased from Charles River (Argenta). The enzyme complex was produced in insect cells (Sf9) infected simultaneously with two baculoviruses. One virus expresses full length human PRMT5 with Flag-tag at N-terminus, the second virus expresses full length MEP50 with His6-TEV cleavage at N-terminus. The protein was affinity purified using anti-Flag (M2) beads eluted with 3×FLAG peptide, followed by His-Select eluted with 0.5M imidazole. Eluted protein was then dialysed against tris-buffered saline (TBS) (pH 8.0) containing 20% glycerol and 3 mM dithiothreitol (DTT).
Full-length untagged human recombinant histone H2A (residues 1-130, Genbank Accession #NM_021052 MW=14.1 kDa) expressed in E. coli was purchased from Reaction Biology Corporation, Cat #HMT-11-146. Reagents used for making reaction buffer or stopping reaction were purchased including Tris base (Sigma Cat #T-1503), NaCl (Sigma Cat #RGF-3270), MgCl2 (Sigma Cat #M0250), DTTI (Invitrogen Cat #15508-013) and Formic Acid (Riedel deHaen, Cat #33015)
High Throughput Mass Spectrometer Assay
PRMT5 catalyzes the sequential methylations of the terminal nitrogen atoms on the guanidine groups of arginine residues within proteins using co-substrate S-adenosyl-L-methionine (AdoMet, SAM), forming mono-methyl (MMA), symmetric-dimethyl arginine (sDMA) and S-adenosyl-L-homocysteine (AdoHcy, SAH). The enzyme activity was determined by following the product SAH formation using high throughput mass spectrometry (Agilent Rapidfire 300 System coupled to a Sciex 4000 series QTrap® triple-quad MS/MS). The reaction buffer was 20 mM Tris-HCl, pH 8.5, 50 mM NaCl, 5 mM MgCl2 and 1 mM DTT. The reaction activity was stopped using 1% formic acid (final concentration).
The IC50 Studies were performed using eleven point dosing series made for each compound by serially diluted 1:2 in dimethyl sulfoxide (DMSO), with point 12 being a DMSO control. Compounds were first spotted to plates, and followed by addition of 2 μM SAM and 0.6 μM H2A (histone H2A) solution mixture. The same volume of enzyme solution was added to initiate the enzymatic reactions. The final concentrations of the reaction are at 1 μM SAM, 0.3 μM H2A and 10 nM enzyme (assay 1a) or 1.25 nM enzyme (assay 1b). The reaction was incubated at 30° C. for 60 minutes (min) when 10 nM enzyme was used and for 120 min when 1.25 nM enzyme was used. Subsequently, the reaction was quenched by addition of formic acid to a final concentration of 1%. The inhibitions of SAH formation in the presence of compounds were calculated as a percentage of the control relative to the uninhibited reaction as a function of inhibitor concentration. The data were fit as follows: Y=Bottom+(Top−Bottom)/(1+10^((log IC50−X)*h))
where IC50 is the inhibitor concentration (same unit as X) at 50% inhibition and h is the Hill slope. Y is percent of inhibition, X is log of compound concentration. Bottom and Top are the plateaus in same units as Y.

[3] = system: nuclear symmetric Arginine dimethylation in A549 cells; assay: PD assay (assay 2): inhibition of nuclear symmetric Arginine dimethylation (SYM10 immunohistochemistry), 48 h; type: cell-based; details: Homo sapiens
In short: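 Cells seeded at 400/well overnight, then treated 48 h at 37 °C, final DMSO 0.2%. Fixed and stained with SYM10 antibody plus Alexa 488 secondary, Hoechst and CellMask, then imaged on Opera. Normalized to DMSO (high) and 10 μM reference compound (low); averaged pIC50 reported.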

[4] = A549, averaged values, PD assay, A549 cells, symmetric Arginine dimethylation, read-out: pIC50 Assay 2 (converted)
[5] = A549, read-out: pIC50 Assay 2 (converted)

T1 sequence (O14744 whole entry): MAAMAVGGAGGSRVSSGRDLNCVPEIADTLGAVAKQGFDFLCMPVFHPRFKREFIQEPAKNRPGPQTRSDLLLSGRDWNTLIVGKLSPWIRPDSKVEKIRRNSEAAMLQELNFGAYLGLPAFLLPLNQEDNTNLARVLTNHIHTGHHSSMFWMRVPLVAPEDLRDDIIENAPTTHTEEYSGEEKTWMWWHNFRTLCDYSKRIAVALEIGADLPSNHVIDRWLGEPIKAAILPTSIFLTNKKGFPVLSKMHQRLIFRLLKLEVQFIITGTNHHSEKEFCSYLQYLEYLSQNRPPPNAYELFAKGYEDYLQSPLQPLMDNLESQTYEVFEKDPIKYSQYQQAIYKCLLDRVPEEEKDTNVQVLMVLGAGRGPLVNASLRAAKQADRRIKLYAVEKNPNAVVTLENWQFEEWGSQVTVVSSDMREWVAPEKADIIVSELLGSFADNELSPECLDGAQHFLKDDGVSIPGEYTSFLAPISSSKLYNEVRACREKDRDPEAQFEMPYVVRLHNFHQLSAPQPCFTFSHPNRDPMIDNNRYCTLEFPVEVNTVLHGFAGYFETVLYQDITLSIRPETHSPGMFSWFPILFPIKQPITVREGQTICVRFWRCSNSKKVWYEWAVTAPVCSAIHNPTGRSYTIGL
T1 sequence (Q9BQA1 whole entry partner): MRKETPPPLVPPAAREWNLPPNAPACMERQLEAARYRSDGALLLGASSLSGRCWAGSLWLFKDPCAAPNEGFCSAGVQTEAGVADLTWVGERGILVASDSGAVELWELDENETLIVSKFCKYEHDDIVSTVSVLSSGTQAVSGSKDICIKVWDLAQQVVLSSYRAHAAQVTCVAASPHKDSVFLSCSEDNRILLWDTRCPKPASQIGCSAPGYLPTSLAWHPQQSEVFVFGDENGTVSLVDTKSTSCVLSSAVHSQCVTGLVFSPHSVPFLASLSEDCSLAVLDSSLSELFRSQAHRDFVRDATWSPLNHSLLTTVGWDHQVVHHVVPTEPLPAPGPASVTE

| Structure (SMILES) | IC50 (PRMT5-MEP50 enzyme [1]) | IC50 (PRMT5-MEP50 enzyme [2]) | IC50 [3, 4] | IC50 [3, 5] |
| --- | --- | --- | --- | --- |
| Nc1ncnc2c1ccn2[C@@H]1C[C@H](CCc2ccc3ccc(NC4CC4)nc3c2)[C@@H](O)[C@H]1O [Compound 152] | 3.98 nM | 0.501 nM | < 1.17 nM |  |
| Cc1ncnc2c1ccn2[C@@H]1O[C@H](CCc2ccc3ccc(N)nc3c2)[C@@H](O)[C@H]1O [Compound 192] | 10 nM | 0.631 nM | 3.16 nM |  |
| CNc1ncnc2c1ccn2[C@@H]1O[C@H](COc2ccc3ccc(N)nc3c2)[C@@H](O)[C@H]1O [Compound 186] | 15.8 nM | 2 nM | 79.4 nM |  |
| Cc1ncnc2c1ccn2[C@@H]1C[C@H](CCc2ccc3ccc(NCC4CC4)nc3c2)[C@@H](O)[C@H]1O [Compound 190] | 5.01 nM | 0.501 nM | ~1.86 nM |  |
| COc1cc2c(Cl)c(C#N)cnc2cc1OC[C@H]1O[C@@H](n2ccc3c(N)ncnc32)[C@H](O)[C@@H]1O [Compound 30] | 39800 nM | > 10000 nM | > 10000 nM |  |
| O[C@@H]1[C@H](O)[C@@H](COc2ccc3ccc(NCC4CC4)nc3c2)O[C@H]1n1ccc2c(Cl)ncnc21 [Compound 140] | 50.1 nM | 6.31 nM | 794 nM |  |
| Cc1cn([C@@H]2O[C@H](COc3ccc4cccnc4c3)[C@@H](O)[C@H]2O)c2ncnc(N)c12 [Compound 82] | 501 nM | 200 nM | 1260 nM |  |
| CC(C)C(=O)O[C@@H]1[C@H](OC(=O)C(C)C)[C@@H](COc2ccc3ccc(C(F)(F)F)nc3c2)O[C@H]1n1ccc2c(N)ncnc21 [Compound 72] | > 100000 nM | > 10000 nM | > 10000 nM |  |
| Cc1cc2c(N)ncnc2n1[C@@H]1O[C@H](COc2ccc3cccnc3c2)[C@@H](O)[C@H]1O [Compound 83] | 126 nM | 39.8 nM | 200 nM |  |
| O[C@@H]1[C@H](O)[C@@H](CCc2ccc3ccc(NCC4CC4)nc3c2)O[C@H]1n1ccc2cncnc21 [Compound 168] | 50.1 nM | 3.98 nM | 126 nM |  |
| Nc1ncnc2c1ccn2[C@@H]1C[C@H](CCc2ccc3ccc(NC4CCCC4)nc3c2)[C@@H](O)[C@H]1O [Compound 146] | 2.51 nM | 0.251 nM | < 1.17 nM |  |
| O[C@@H]1[C@H](O)[C@@H](CCc2ccc3ccc(NCc4ccc(Cl)cc4)nc3c2)O[C@H]1n1ccc2cncnc21 [Compound 165] | 31.6 nM | 3.98 nM | 20 nM |  |
| Nc1ncnc2c1ccn2[C@@H]1O[C@H](COc2ccc3c(C(F)(F)F)ccnc3c2)[C@@H](O)[C@H]1O [Compound 99] | > 100000 nM | > 10000 nM | > 10000 nM |  |
| CC(C)Nc1ccc2ccc(CC[C@H]3C[C@@H](n4ccc5c(N)ncnc54)[C@H](O)[C@@H]3O)cc2n1 [Compound 149] | 5.01 nM | 0.316 nM |  | 1 nM |
| Nc1ncnc2c1ccn2[C@@H]1C[C@H](CCc2ccc3cc(Cl)c(NCC4CC4)nc3c2)[C@@H](O)[C@H]1O [Compound 147] | 251 nM | 251 nM | 31.6 nM |  |
| O[C@@H]1[C@H](O)[C@@H](COc2ccc3ccc(NCc4ccc(Cl)cc4)nc3c2)O[C@H]1n1ccc2c(Cl)ncnc21 [Compound 131] | 63.1 nM | 7.94 nM | ~66.1 nM |  |
| C=C(C)c1cnc2cc(OC[C@H]3O[C@@H](n4ccc5c(N)ncnc54)[C@H](O)[C@@H]3O)ccc2c1 [Compound 212] | 50.1 nM | 20 nM |  | 200 nM |
| O[C@@H]1[C@@H](CCc2ccc3ccc(NCc4ccc(Cl)cc4)nc3c2)C[C@@H](n2ccc3c(Cl)ncnc32)[C@@H]1O [Compound 114] | 25.1 nM | 15.8 nM | 12.6 nM |  |
| COc1cc2c(N)c(C#N)cnc2cc1OC[C@H]1O[C@@H](n2ccc3c(N)ncnc32)[C@H](O)[C@@H]1O [Compound 31] | 3980 nM | 3160 nM | > 20000 nM |  |
| Cc1cc2c(N)ncnc2n1[C@@H]1O[C@H](COc2ccc3cc(Br)cnc3c2)[C@@H](O)[C@H]1O [Compound 108] | 100 nM | 39.8 nM | 63.1 nM |  |
| Nc1ccc2ccc(OC[C@H]3O[C@@H](n4ccc5cncnc54)[C@H](O)[C@@H]3O)cc2n1 [Compound 163] | 5.01 nM | 0.501 nM | 6.31 nM |  |

Continued, in another order:

| IC50 (PRMT5-MEP50 enzyme [1]) | IC50 (PRMT5-MEP50 enzyme [2]) | IC50 [3, 4] | Structure (SMILES) | IC50 [3, 5] |
| --- | --- | --- | --- | --- |
| 7.94 nM | 10 nM | 25.1 nM | Nc1ncnc2c1ccn2[C@@H]1O[C@H](CNc2ccc3cc(Cl)cnc3c2)[C@@H](O)[C@H]1O [Compound 50] |  |
| 15800 nM | 5010 nM | > 10000 nM | COc1ccnc2cc(OC[C@H]3O[C@@H](n4ccc5c(N)ncnc54)[C@H](O)[C@@H]3O)ccc12 [Compound 104] |  |
| 20 nM | 1.58 nM | 6.31 nM | CNc1ccc2ccc(CC[C@H]3O[C@@H](n4ccc5c(N)ncnc54)[C@H](O)[C@@H]3O)cc2n1 [Compound 137] |  |
| 50.1 nM | 12.6 nM | 79.4 nM | CCc1cnc2cc(CC[C@H]3O[C@@H](n4ccc5c(N)ncnc54)[C@H](O)[C@@H]3O)ccc2c1 [Compound 122] |  |
| 794 nM | 1000 nM | 2000 nM | Nc1ncnc2c1ccn2[C@@H]1O[C@H](COc2ccc3cc(Cl)cnc3c2Cl)[C@@H](O)[C@H]1O [Compound 101] |  |
| 126 nM | 39.8 nM | 794 nM | Nc1ncnc2c1ccn2[C@@H]1O[C@H](COc2ccc3cc(F)cnc3c2)[C@@H](O)[C@H]1O [Compound 24] |  |
| 10 nM | 5.01 nM | 5.01 nM | Cc1cnc2cc(CC[C@H]3C[C@@H](n4ccc5c(N)ncnc54)[C@H](O)[C@@H]3O)ccc2c1 [Compound 113] |  |
| 25100 nM | 6310 nM | ~17800 nM | Nc1ncnc2c1ccn2[C@@H]1O[C@H](COc2ccc3ccc(C(F)(F)F)nc3c2)[C@@H](O)[C@H]1O [Compound 22] |  |
| 2000 nM | 794 nM | 15800 nM | Nc1ncnc2c1ccn2[C@@H]1O[C@H](COc2ccc3ccncc3c2)[C@@H](O)[C@H]1O [Compound 13] |  |
| 7940 nM | > 10000 nM | > 10000 nM | COc1ncnc2c1ccn2[C@@H]1O[C@H](CN(C)c2ccc3cc(Br)cnc3c2)[C@@H](O)[C@H]1O [Compound 88] |  |
| 10000 nM | 6310 nM | > 10000 nM | Nc1ncnc2c1ccn2[C@@H]1O[C@H](COc2ccc3cccnc3c2Cl)[C@@H](O)[C@H]1O [Compound 41] |  |
| 25.1 nM | 7.94 nM | 39.8 nM | Nc1ncnc2c1ccn2[C@@H]1O[C@H](COc2ccc3cc(Br)cnc3c2)[C@@H](O)[C@H]1O [Compound 2] |  |
| 158 nM | 39.8 nM | 631 nM | Nc1ncnc2c1ccn2[C@@H]1O[C@H](COc2cc3ncccc3cc2I)[C@@H](O)[C@H]1O [Compound 3] |  |
| 126 nM | 50.1 nM | 316 nM | Nc1nc(Cl)nc2c1ccn2[C@@H]1O[C@H](COc2ccc3cc(Br)cnc3c2)[C@@H](O)[C@H]1O [Compound 42] |  |
